These are literature values, as cited in patent US20050287214A1, “Squeeze controlled oral dosage form” (priority 2004, published 2005).

For this data set the following is noted: solubility of the active agent as stated in the formulation tables; no method given.

Consider `CNC(=C[N+](=O)[O-])NCCSCc1ccc(CN(C)C)o1` [Ranitidine], for which the solubility entry was “Ranitidine (solubility = 880 mg/ml)”.
